Experimental data from patent US11840686B2, “Modulation of prekallikrein (PKK) expression” (Ionis Pharmaceuticals, Inc., priority 2013, dated 2023).
Strand notation (5' to 3'): a small letter for the sugar, then the base; units joined by * are phosphorothioate-linked, units joined directly phosphodiester-linked; [ ] holds rarer units or linkages, { } end groups; capitals alone tell only the bases. e = 2'-O-(2-methoxyethyl) (MOE); [5mC] = 5-methylcytosine; d = 2'-deoxy (DNA)

What follows are substances tested on human PKK mRNA (assay: Antisense inhibition of human PKK mRNA in HepaRG cells, 3,000 nM (Example 1)). Settings: Table 1; PKK mRNA, HepaRG cells, 3,000 nM, electroporation, ~24 h, relative to untreated control cells.
Type: cell-based
Experimental: Antisense oligonucleotides were designed targeting a PKK nucleic acid and were tested for their effects on PKK mRNA in vitro. HepaRG™ cells, which are terminally differentiated hepatic cells derived from a human hepatic progenitor cell line and retain many characteristics of primary human hepatocytes (Lubberstedt M. et al., J. Pharmacol. Toxicol. Methods 2011 63: 59-68), were used in the screen.
The chimeric antisense oligonucleotides in the tables below were designed as 5-10-5 MOE gapmers. The gapmers are 20 nucleosides in length, wherein the central gap segment comprises of ten 2′-deoxynucleosides and is flanked by wing segments on the 5′ direction and the 3′ direction comprising five nucleosides each. Each nucleoside in the 5′ wing segment and each nucleoside in the 3′ wing segment has a 2′-O-methoxyethyl modification. The internucleoside linkages throughout each gapmer are phosphorothioate linkages. All cytosine residues throughout each gapmer are 5-methylcytosines. “Start site” indicates the 5′-most nucleoside to which the gapmer is targeted in the human gene sequence. “Stop site” indicates the 3′-most nucleoside to which the gapmer is targeted in the human gene sequence.
Cultured HepaRG™ cells at a density of 20,000 cells per well were transfected using electroporation with 3,000 nM antisense oligonucleotide. After a treatment period of approximately 24 hours, RNA was isolated from the cells and PKK mRNA levels were measured by quantitative real-time PCR. Human primer probe set RTS3454 (forward sequence […], designated herein as SEQ ID NO: 20; reverse sequence […], designated herein as SEQ ID NO: 21; probe sequence […], designated herein as SEQ ID NO: 22) was used to measure mRNA levels. PKK mRNA levels were adjusted according to total RNA content, as measured by RIBOGREEN®. The antisense oligonucleotides were tested in a series of experiments that had similar culture conditions. Results are presented as percent inhibition of PKK, relative to untreated control cells.

Substance	% inhibition
530953 (antisense eG*eA*eA*eA*eA*d[5mC]*dT*dG*dA*dA*dT*dA*dG*d[5mC]*dA*eA*eA*e[5mC]*eA*e[5mC]) [compound 530953]	7%
530993 (e[5mC]*eA*eA*eA*e[5mC]*dA*dT*dT*d[5mC]*dA*d[5mC]*dT*d[5mC]*d[5mC]*dT*eT*eT*eA*eA*e[5mC]; antisense) [compound 530993]	30%
530998 (eA*eG*eT*eG*eA*dA*dA*dA*dA*d[5mC]*dT*dG*dA*d[5mC]*dA*eG*e[5mC]*eG*eA*eA; antisense) [compound 530998]	0%
530984 (antisense eT*eT*eA*eG*eA*dA*dT*dG*dG*d[5mC]*dA*dG*dG*dG*dT*eT*e[5mC]*eA*eG*eG) [compound 530984]	25%
530994 (e[5mC]*eT*eT*eG*eG*d[5mC]*dA*dA*dA*d[5mC]*dA*dT*dT*d[5mC]*dA*e[5mC]*eT*e[5mC]*e[5mC]*eT; antisense) [compound 530994]	50%
530944 (antisense e[5mC]*eA*eG*eA*e[5mC]*dA*dT*d[5mC]*d[5mC]*dA*d[5mC]*dA*dG*dG*dA*eA*eA*e[5mC]*eT*eG) [compound 530944]	0%
530981 (antisense eT*eT*e[5mC]*eT*eT*dT*dT*dG*d[5mC]*dA*dG*dG*dT*dT*dA*eA*eA*eA*eG*eG) [compound 530981]	0%
530931 (antisense e[5mC]*eT*eT*eA*eA*dA*dA*dA*dT*dG*dA*dA*d[5mC]*dG*dG*eT*e[5mC]*eT*eT*e[5mC]) [compound 530931]	29%

Same assay, conditions: Table 2; PKK mRNA, HepaRG cells, 3,000 nM, electroporation, ~24 h, relative to untreated control cells

Substance	% inhibition
531072 (eG*e[5mC]*eT*e[5mC]*eA*dG*dA*dA*dT*dT*dT*dG*dA*d[5mC]*dT*eT*eG*eA*eA*e[5mC]; antisense) [compound 531072]	64%
531019 (eG*eT*eG*eA*eG*dG*dA*d[5mC]*d[5mC]*d[5mC]*dA*d[5mC]*dT*dG*dG*eT*eG*eT*e[5mC]*e[5mC]; antisense) [compound 531019]	28%
531045 (antisense eT*eT*eT*e[5mC]*eT*dG*dG*d[5mC]*dA*dT*dT*d[5mC]*dT*dT*d[5mC]*eA*eT*eT*eT*eG) [compound 531045]	37%
531053 (antisense eA*eG*e[5mC]*eA*e[5mC]*dA*dG*dA*d[5mC]*d[5mC]*dA*dT*d[5mC]*d[5mC]*dG*eT*eT*eG*eG*eG) [compound 531053]	49%
531012 (eT*e[5mC]*eT*e[5mC]*e[5mC]*d[5mC]*d[5mC]*dA*dA*dG*dA*dA*dG*dA*dG*eT*eT*eT*eG*eT; antisense) [compound 531012]	48%
531042 (antisense eT*eT*eA*e[5mC]*e[5mC]*dA*dA*dA*dG*dG*dA*dA*dT*dA*dT*eT*eT*eA*e[5mC]*e[5mC]) [compound 531042]	11%
531073 (e[5mC]*e[5mC]*e[5mC]*eA*eG*dG*d[5mC]*dT*d[5mC]*dA*dG*dA*dA*dT*dT*eT*eG*eA*e[5mC]*eT; antisense) [compound 531073]	51%

Same assay, conditions: Table 3; HepaRG cells, electroporation with 3,000 nM antisense oligonucleotide, approx. 24 hours; PKK mRNA by RT-PCR (RTS3454), relative to untreated control cells

Substance	% inhibition
531114 (antisense eA*eG*eA*eG*eT*d[5mC]*dA*dA*dG*dT*d[5mC]*d[5mC]*dA*d[5mC]*dA*eG*eA*e[5mC]*eA*eT) [compound 531114]	40%
531102 (eT*eG*e[5mC]*e[5mC]*eT*d[5mC]*dT*dT*dT*dA*dA*dT*dA*dA*dA*eA*eA*e[5mC]*eT*e[5mC]; antisense) [compound 531102]	42%
531095 (e[5mC]*eT*eA*eA*e[5mC]*dA*dA*d[5mC]*d[5mC]*d[5mC]*d[5mC]*dA*d[5mC]*dA*dA*eT*eA*eT*e[5mC]*eA; antisense) [compound 531095]	20%
531119 (antisense eT*eA*eA*eA*e[5mC]*dT*d[5mC]*dT*dT*dA*d[5mC]*dA*dT*dT*dT*eA*eT*eA*eG*eA) [compound 531119]	0%
531136 (antisense eT*eA*eA*e[5mC]*eA*dT*dT*dT*d[5mC]*dT*dA*dT*dG*dG*dG*e[5mC]*e[5mC]*eT*eG*eA) [compound 531136]	6%
531106 (antisense eA*eA*eG*eA*eT*d[5mC]*dT*dA*dG*dA*dT*dA*dA*dT*dT*e[5mC]*eT*eT*eG*eT) [compound 531106]	31%
531096 (e[5mC]*e[5mC]*e[5mC]*eA*eA*dT*dT*d[5mC]*dT*dT*dA*dG*dT*d[5mC]*d[5mC]*eT*eT*eT*eA*eA; antisense) [compound 531096]	45%
531128 (antisense eA*eA*eG*eT*eT*d[5mC]*d[5mC]*dA*d[5mC]*d[5mC]*dT*dT*d[5mC]*dT*dA*eA*e[5mC]*eT*eG*eG) [compound 531128]	18%
531118 (antisense eG*e[5mC]*e[5mC]*eT*eA*dA*dA*dT*dG*dT*dA*dA*dG*dA*dG*e[5mC]*eT*eA*eA*eA) [compound 531118]	26%
531149 (antisense eA*eG*eA*eG*eG*dT*dA*dA*dA*dG*d[5mC]*dA*dA*d[5mC]*dT*eT*eG*e[5mC]*e[5mC]*e[5mC]) [compound 531149]	45%

Same assay, conditions: Table 4; HepaRG cells, electroporation with 3,000 nM antisense oligonucleotide, approx. 24 hours; PKK mRNA by RT-PCR (RTS3454), relative to untreated control cells

Substance	% inhibition
531199 (e[5mC]*eT*eT*eT*eG*dA*dA*dT*dA*dG*dA*dA*dA*dA*dT*eG*eA*e[5mC]*eT*eA; antisense) [compound 531199]	1%
531223 (eT*eG*eT*eA*e[5mC]*dT*d[5mC]*dA*d[5mC]*d[5mC]*dG*dG*dT*dA*d[5mC]*eT*e[5mC]*eT*eG*e[5mC]; antisense) [compound 531223]	58%
531163 (antisense eT*e[5mC]*eA*eG*e[5mC]*dA*dG*dA*dA*dA*dT*d[5mC]*dA*dT*dG*eT*eA*eG*eG*e[5mC]) [compound 531163]	60%
531162 (antisense eA*eA*eT*eT*eT*d[5mC]*d[5mC]*d[5mC]*dA*dG*dA*dT*dG*dT*dA*eT*eT*eA*eG*eT) [compound 531162]	43%
531220 (e[5mC]*eA*eA*eT*eA*d[5mC]*dA*dG*dG*dT*dA*dA*dA*dT*dT*eT*e[5mC]*eA*e[5mC]*eG; antisense) [compound 531220]	56%
531203 (eT*eG*eA*e[5mC]*eT*dA*dT*d[5mC]*d[5mC]*dA*dA*dT*dT*dT*d[5mC]*eT*eA*eG*eT*eT; antisense) [compound 531203]	67%
531202 (eA*eT*eT*eA*eA*dT*dA*dA*dG*d[5mC]*dA*dT*d[5mC]*dT*d[5mC]*eT*e[5mC]*eT*eG*eA; antisense) [compound 531202]	31%
531169 (antisense eT*eG*eG*eG*e[5mC]*dT*d[5mC]*dA*d[5mC]*d[5mC]*d[5mC]*d[5mC]*dA*dG*dT*eG*eG*eA*e[5mC]*e[5mC]) [compound 531169]	54%
531165 (antisense eG*eT*eA*eA*eT*dA*dA*dA*dA*dG*dG*dA*dA*dT*dG*eA*eT*eA*eA*eA) [compound 531165]	0%
531222 (eG*eG*e[5mC]*eA*eA*dG*d[5mC]*dT*dG*dT*dA*d[5mC]*dA*dA*dG*eA*eA*eA*eA*eA; antisense) [compound 531222]	19%
531228 (e[5mC]*eA*eG*eA*eG*dT*dA*dA*dA*d[5mC]*dT*d[5mC]*d[5mC]*d[5mC]*d[5mC]*eA*eT*e[5mC]*eT*e[5mC]; antisense) [compound 531228]	33%
